In brackets after ≈: the same amount, converted by molar mass.
Key:
Plasmopara viticola [1] = experiment: Antisporulant activity against vine downy mildew (PVA), Example 54(a); type: in vivo; details: antisporulant foliar spray, 600 ppm
Description: The test is a direct antisporulant one using a foliar spray. The lower surface of leaves of vine plants (cv. Cabernet Sauvignon), approximately 8 cm high, are inoculated with an aqueous suspension containing 5×10^4 zoosporangia/ml. The inoculated plants are kept for 24 hours at 21° C. in a high humidity cabinet, then for 24 hours in a glasshouse at 20° C. and 40% relative humidity. Infected leaves are sprayed on their lower surfaces with a solution of the test compound in 1:1 water/acetone containing 0.04% "TWEEN 20" (Trade Mark; a polyoxyethylene sorbitan ester surfactant). Plants are sprayed using a track sprayer equipped with 2 air-atomising nozzles. The concentration of the compound is 600 ppm and the spray volume is 750 l/ha. After drying, the plants are returned to the glasshouse at 20° C. and 40% relative humidity for 96 hours and are then transferred to the high humidity cabinet for 24 hours to induce sporulation. Assessment is based on the percentage of the leaf area covered by sporulation compared with that on control leaves. The extent of disease control in all the above tests is expressed as a rating compared with either an untreated control or a diluent-sprayed-control, according to the criteria: […]

[2] = system: Pseudocercosporella herpotrichoides; experiment: MIC by serial dilution, Example 55, Pseudocercosporella herpotrichoides; type: cell-based; details: Oculimacula yallundae; microtitre plates, 20° C., 6-8 days
Description: (§1) The MIC (Minimum Inhibition Concentration)-values were determined by serial dilution tests using 48-well microtitre plates. The dilution of the test compounds in the nutrient solution and the distribution to the wells were carried out by a TECAN RSP 5000 robotic sample processor.
(§2) For preparation of the nutrient solution, V8 juice (Trade Mark) was neutralised with calcium carbonate and centrifuged. The supernatant was diluted with distilled water (1:5) to the final concentration.
(§3) The fungi (Alternaria solani, Botrytis cinerea, Pseudocercosporella herpotrichoides, Micronectriella nivalis, Gaeumannomyces graminis) were added into the wells as a droplet of spore suspension. The microtitre plates were then incubated at 20° C. for 6-8 days. The MIC-value, which was defined to be the lowest concentration in the dilution series without mycelial growth, was determined by visual inspection of the plates.

Gaeumannomyces graminis = experiment: MIC by serial dilution, Example 55, Gaeumannomyces graminis; type: cell-based; details: microtitre plates, 20° C., 6-8 days
Description: as §1, §2, §3

Micronectriella nivalis = experiment: MIC by serial dilution, Example 55, Micronectriella nivalis; type: cell-based; details: microtitre plates, 20° C., 6-8 days
Description: as §1, §2, §3

Leptosphaeria nodorum = experiment: Activity against wheat leafspot (LN), Example 54(e); type: in vivo; details: therapeutic foliar spray as under (a) (600 ppm)
Description: The test is a direct therapeutic one using a foliar spray. Wheat seedlings (cv Norman), at the single leaf stage, are inoculated with an aqueous suspension containing 1.5×10^6 conidia/ml. The inoculated plants are kept for 24 hours at 20° C. in a high humidity cabinet, followed by spraying with the test compound as described under (a). After drying, the plants are kept for 6-8 days in the glasshouse at 22° C. and 70% relative humidity. Assessment is based on the density of lesions per leaf compared with that on leaves of control plants. The extent of disease control in all the above tests is expressed as a rating compared with either an untreated control or a diluent-sprayed-control, according to the criteria: […]

Plasmopara viticola [3] = experiment: Direct protectant activity against vine downy mildew (PVP), Example 53(c); type: in vivo; details: protectant foliar spray, 1000 ppm
Description: The test is a direct protectant one using a foliar spray. The lower surface of leaves of whole vine plants (cv Cabernet Sauvignon) are sprayed with the test compound at a dosage of 1000 ppm using an automated sprayline as described under (a), and after a subsequent period of 24 hours under normal glasshouse conditions the lower surfaces of the leaves are inoculated by spraying with an aqueous suspension containing 2.5×10^4 zoosporangia/ml. The inoculated plants are kept for 24 hours in a high humidity cabinet, 5 days under normal glasshouse conditions and then returned for a further 24 hours to high humidity. Assessment is based on the percentage of leaf area covered by sporulation compared with that on control leaves. The extent of disease control in all the above tests is expressed as a rating compared with either an untreated control or a diluent-sprayed-control, according to the criteria: […]

[4] = system: Pseudocercosporella herpotrichoides; experiment: Activity against wheat eyespot in-vitro (PHI), Example 53(j); type: cell-based; details: 50 ppm, 12 days at 20° C.
Description: This test measures the in vitro activity of compounds against the fungus causing wheat eyespot. The test compound is dissolved or suspended in acetone and is added into 4 ml aliquots of half strength Potato Dextrose Broth dispensed in 25-compartment petri dishes to give a final concentration of 50 ppm compound and 2.5% acetone. Each compartment is inoculated with a 6 mm diameter plug of agar/mycelium taken from a 14 day old culture of P. herpotrichoides. Plates are incubated at 20° C. for 12 days until the assessment of mycelial growth. The extent of disease control in all the above tests is expressed as a rating compared with either an untreated control or a diluent-sprayed-control, according to the criteria: […]

Puccinia arachidis = experiment: Field pot test with Puccinia arachidis on peanuts; type: in vivo; details: topical, 456 h, 500 μg/ml spray, 1000 l/ha, 19 days after treatment, Abbott formula, read-out: % efficacy Puccinia arachidis
Description: 15 seeds of peanuts were sown in pots filled with a soil substrate. When the plants have developed 4 true leaves the fungicides and the test compounds were applied using a hand sprayer. The test compounds were applied at a concentration of 500 μg/ml in a […] containing 10% acetone and 0.05% Triton X 155 in water. The total amount of […] corresponded to 1000 l/ha. Six replicates per treatment were used. 2 Days after treatment the pots were exposed to peanut plants in the field on which the fungus, Puccinia arachidis, had formed sporulating pustules on the leaves. The assessment was carried out 19 days after treatment by estimating the percentage of infected leaf area. The % efficacy was calculated using the Abbott formula.

Cercospora arachidicola = experiment: Field pot test with Cercospora arachidicola on peanuts; type: in vivo; details: Mycosphaerella arachidis, topical, 360 h, 500 μg/ml spray, 1000 l/ha, 15 days after treatment, Abbott formula, read-out: % efficacy Cercospora arachidicola
Description: 15 Seeds of peanuts were sown in pots filled with a soil substrate. When the plants have developed 4 true leaves (approx. 12-14 days after seeding) the fungicides and the test compounds were applied using a hand sprayer. The test compounds were applied at a concentration of 500 μg/ml in a […] containing 10% acetone and 0.05% Triton X 155 in water. The total amount of […] corresponded to 1000 l/ha. Six replicates (pots) per treatment were used. 2 days after treatment the pots were exposed to peanut plants in the field on which the fungus, Cercospora arachidicola, had formed sporulating lesions. The assessment was carried out 15 days after treatment by estimating the percentage of infected leaf area. The % efficacy was calculated using the Abbott formula.

Pyricularia oryzae = type: in vivo; details: rice, therapeutic foliar spray, 1000 ppm
[5] = system: Erysiphe graminis f.sp. hordei; experiment: Activity against barley powdery mildew (EG), Example 53(h); type: in vivo; details: therapeutic foliar spray, 1000 ppm
Description: The test is a direct therapeutic one, using a foliar spray. Leaves of barley seedlings, (cv. Golden Promise) are inoculated by dusting with mildew conidia one day prior to treatment with the test compound. The inoculated plants are kept overnight at glasshouse ambient temperature and humidity prior to treatment. The plants are sprayed with the test compound at a dosage of 1000 ppm using an automated sprayline as described under (a). After drying, plants are returned to a compartment at 20°-25 ° C. and moderate humidity for up to 7 days, followed by assessment. Assessment is based on the percentage of leaf area covered by sporulation compared with that on leaves of control plants. The extent of disease control in all the above tests is expressed as a rating compared with either an untreated control or a diluent-sprayed-control, according to the criteria: […]

Plasmopara viticola [6] = experiment: Antisporulant activity against vine downy mildew (PVA), Example 53(a); type: in vivo; details: antisporulant foliar spray, 1000 ppm
Description: The test is a direct antisporulant one using a foliar spray. The lower surface of leaves of whole vine plants (cv Cabernet Sauvignon) are inoculated by spraying with an aqueous suspension containing 2.5×10^4 zoosporangia/ml two days prior to treatment with the test compound. The inoculated plants are kept for 24 hours in a high humidity compartment, then 24 hours at glasshouse ambient temperature and humidity. Infected leaves are sprayed on their lower surfaces with a solution of active material in 1:1 water/acetone containing 0.04% "TWEEN 20" (Trade Mark; a polyoxyethylene sorbitan ester surfactant). Plants are treated using an automated sprayline with an atomising nozzle. The concentration of the compound is 1000 ppm, and the spray volume is 700 l/ha. After spraying, the plants are returned to normal glasshouse conditions for 96 hours and are then transferred to the high humidity cabinet for 24 hours to induce sporulation, prior to assessment. Assessment is based on the percentage of the leaf area covered by sporulation compared with that on control leaves. The extent of disease control in all the above tests is expressed as a rating compared with either an untreated control or a diluent-sprayed-control, according to the criteria: […]

Cc1ccccc1-c1c(Cl)nc2ncnn2c1Cl [Example 29]
PVA (disease control rating) (Plasmopara viticola [1]): 1 (50-80% disease control) | MIC [2]: 12.5 µg/mL (≈ 44.8 µM) | MIC (Gaeumannomyces graminis): 1.56 µg/mL (≈ 5.59 µM) | MIC (Micronectriella nivalis): 6.25 µg/mL (≈ 22.4 µM)

Clc1ccc(-c2c(Cl)nc3ncnn3c2Cl)c(Cl)c1 [Example 35]
LN (disease control rating) (Leptosphaeria nodorum): 1 (50-80% disease control) | MIC [2]: 6.25 µg/mL (≈ 18.7 µM) | MIC (Gaeumannomyces graminis): 0.39 µg/mL (≈ 1.17 µM) | MIC (Micronectriella nivalis): 0.39 µg/mL (≈ 1.17 µM)

COc1cccc(-c2c(Cl)nc3ncnn3c2Cl)c1 [Example 4]
Fungicidal Activity PVP (disease control rating) (Plasmopara viticola [3]): 1 (about 50-80% disease control) | Fungicidal Activity PHI (disease control rating) [4]: 2 (greater than 80% disease control)

CC(C)c1ccc(-c2c(Cl)nc3ncnn3c2Cl)cc1 [Example 8]
pest or weed control at 500 µg/mL (Puccinia arachidis): 17% | pest or weed control at 500 µg/mL (Cercospora arachidicola): 33% | Fungicidal Activity PO (disease control rating) (Pyricularia oryzae): 1 (about 50-80% disease control) | Fungicidal Activity PHI (disease control rating) [4]: 2 (greater than 80% disease control)

COc1ccccc1-c1c(Cl)nc2ncnn2c1Cl [Example 5]
Fungicidal Activity PVP (disease control rating) (Plasmopara viticola [3]): 2 (greater than 80% disease control) | Fungicidal Activity PHI (disease control rating) [4]: 2 (greater than 80% disease control)

Clc1nc2ncnn2c(Cl)c1-c1cccs1 [Example 26]
MIC [2]: 6.25 µg/mL (≈ 23.1 µM) | MIC (Gaeumannomyces graminis): 0.39 µg/mL (≈ 1.44 µM) | Fungicidal Activity EG (disease control rating) [5]: 1 (about 50-80% disease control) | MIC (Micronectriella nivalis): 0.78 µg/mL (≈ 2.88 µM) | Fungicidal Activity PHI (disease control rating) [4]: 2 (greater than 80% disease control)

Clc1nc2ncnn2c(Cl)c1-c1ccccc1OCc1ccccc1 [Example 20]
Fungicidal Activity PVA (disease control rating) (Plasmopara viticola [6]): 2 (greater than 80% disease control) | Fungicidal Activity PHI (disease control rating) [4]: 1 (about 50-80% disease control)

Clc1ccccc1-c1c(Br)nc2ncnn2c1Br [Example 2, 5,7-dibromo-6-(2-chlorophenyl)-1,2,4-triazolo[1,5a]pyrimidine]
LN (disease control rating) (Leptosphaeria nodorum): 1 (50-80% disease control)

Reference: patent publication US5854252A, “Dihalotriazolopyrimidine derivatives” (Shell Internationale Research Maatschappij B.V., priority 1993, dated 1998)
